Reference: PMC11002876, “KcsA-Kv1.x chimeras with complete ligand-binding sites provide improved predictivity for screening selective Kv1.x blockers” (The Journal of Biological Chemistry, 2024)
Substitutions are numbered along the chain they refer to. Like-named read-outs stand apart in the source and are kept apart here. Where a SMILES comes first, the peptide text is derived from it.

Assays:
human Kv1.1 = conditions: cited from earlier work
[1] = molecular target: T1, KcsA-Kv1.3 T-only chimera (Streptomyces lividans, UniProt P0A334, A54D/A57S/G53D/G56T/I60S/L59F/Q58G/R52A/R64D/T61S/Y62I); test: Phage-binding competition assay, KcsA-Kv1.3 T-only; design: species or system human Kv1.3 turret in Streptomyces lividans KcsA; conditions: for IC50: HgTx1-phage competition, T-only KcsA-Kv1.3, value given in figure, sigmoidal fit to means of three replicates, read-out: IC50 (Fig. 6E); for Rank, T-only chimera (Kv1.3): rank by competition IC50 among Vm24, HgTx1, KTX1
T1 construct: made in house; host or cells: E. coli XL1-Blue (pQE30)
T1 sequence (P0A334 1-160 R52A/G53D/A54D/G56T/A57S/Q58G/L59F/I60S/T61S/Y62I/R64D): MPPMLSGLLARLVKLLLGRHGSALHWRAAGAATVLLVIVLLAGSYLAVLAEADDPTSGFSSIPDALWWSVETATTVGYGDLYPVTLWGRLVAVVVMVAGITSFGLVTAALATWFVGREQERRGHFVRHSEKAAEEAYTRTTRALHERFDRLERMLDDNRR
Method: (§1) Phage stock solutions were diluted to working concentration with phage resuspension buffer supplemented with 2 mM DDM. For protein immobilization, the following amounts were used in a final volume of 50 μl/well: wt KcsA, 0.1 μg; KcsA-Kv1.1 T-only, 0.005 μg; KcsA-Kv1.1 T+F, 0.02 μg; KcsA-Kv1.2 T-only, 0.01 μg; KcsA-Kv1.2 T+F, 0.1 μg; KcsA-Kv1.3 T-only, 0.01 μg; and KcsA-Kv1.3 T+F, 0.1 μg. Protein samples were diluted in 50 μl of storage buffer (20 mM Tris pH8.0, 300 mM KCl, 2 mM DDM) and were added to the designated wells of a Pierce Clear, 96-Well Nickel Coated Plate (15442, Thermo Fisher Scientific), then incubated for 1 h at room temperature on a horizontal shaker at 130 rpm. The plate was blocked for 1 h at room temperature with 180 μl/well TBS-BSA supplemented with 1 mM DDM. Following blocking, the wells were washed 4× with washing buffer (300 μl TBS-Tween, 0.1% v/v) using a Wellwash Versa microplate washer (Thermo Fisher Scientific); then 50 μl phage solution (in TBS-BSA-Tween, 0.1% v/v, 2 mM DDM) at determined phage concentration was added to the wells and incubated for 1 h at room temperature on a horizontal shaker. The plate was washed 4× with washing buffer, then 50 μl anti-M13 IgG HRP (MA5-36125, Invitrogen) diluted to 1:2500 in TBS-Tween (0.1% v/v) was added to the wells and incubated for 1 h at room temperature. The plate was washed again 4× with 300 μl/well washing buffer. Finally, 50 μl/well 1-Step Ultra TMB-ELISA solution (34028, Thermo Fisher Scientific) was added to the wells, and the developing signal was stopped with 50 μl 1M HCl after 5 to 10 min. The light absorbance signal was read at 450 nm with Byonoy absorbance 96 plate reader (Byonoy GmbH).
(§2) For protein immobilization, the following amounts were used in a final volume of 50 μl/well: KcsA-Kv1.1 T-only, 0.005 μg; KcsA-Kv1.1 T+F, 0.01 μg; KcsA-Kv1.2 T-only, 0.025 μg; KcsA-Kv1.2 T+F, 0.0125 μg; KcsA-Kv1.3 T-only, 0.01 μg; and KcsA-Kv1.3 T+F, 0.1 μg. Protein samples were diluted in storage buffer. Binding of given concentrations of relevant ligand-displaying phages quantified by light absorbance ([…]) were investigated in a similar manner as in phage ELISA-binding assay, while different concentrations of competing toxin test substances were applied simultaneously. The results were converted to percent inhibitions (percent displacement) of the indicator phage binding, and relative affinities of the tested toxins were assessed by plotting percent displacements against log concentrations and determining half maximal inhibitory concentrations (IC50) by sigmoidal curve fitting using “Sigmoidal dose-response (variable slope) with least squares method” algorithm in GraphPad Prism 8 using the following equation: Y=Bottom+Top−Bottom/1+10^(LogEC50−×)⋅HillSlope

human Kv1.2 = conditions: cited from earlier work; for IC50: human Kv1.2 channel blocking, patch-clamp, read-out: IC50, Kv1.x blocking (Kv1.2)
Method: Elution was done at 1 ml/min flow rate. Eluted peak fractions (1 ml) were analyzed by SDS-PAGE, then pooled and concentrated. The concentration of the purified protein was determined by measuring the UV absorbance at 280 nm using the protein extinction coefficient calculator in the ProtParam tool of Ex ...

KcsA-Kv1.2 T+F chimera [2] = molecular target: T2, KcsA-Kv1.2 T+F chimera (Streptomyces lividans, UniProt P0A334, R52A/G53D/A54E/P55R/G56E/A57S/L59F/I60P/T61S/Y62I/R64D/L81M/Y82V/V84T); test: Phage-binding competition assay, KcsA-Kv1.2 T+F; design: species or system human Kv1.2 turret and filter in Streptomyces lividans KcsA; conditions: rank by competition IC50 among MTX, ShK, KTX1
T2 sequence (P0A334 1-160 R52A/G53D/A54E/P55R/G56E/A57S/L59F/I60P/T61S/Y62I/R64D/L81M/Y82V/V84T): T1 sequence (P0A334 1-160 R52A/G53D/A54D/G56T/A57S/Q58G/L59F/I60S/T61S/Y62I/R64D) with D54E, P55R, T56E, G58Q, S60P, L81M, Y82V, V84T
Method: as §1, §2

KcsA-Kv1.2 T+F chimera [3] = molecular target: T3, KcsA-Kv1.2 T+F chimera (Streptomyces lividans, UniProt P0A334, A54E/A57S/G53D/G56E/I60P/L59F/L81M/P55R/R52A/R64D/T61S/V84T/Y62I/Y82V); test: Phage-binding competition assay, KcsA-Kv1.2 T+F; design: species or system human Kv1.2 turret and filter in Streptomyces lividans KcsA
T3 sequence (P0A334 1-160 R52A/G53D/A54E/P55R/G56E/A57S/L59F/I60P/T61S/Y62I/R64D/L81M/Y82V/V84T): T1 sequence (P0A334 1-160 R52A/G53D/A54D/G56T/A57S/Q58G/L59F/I60S/T61S/Y62I/R64D) with D54E, P55R, T56E, G58Q, S60P, L81M, Y82V, V84T
Method: as §1, §2

Compound	inhibition of Kv1.1, in words (human Kv1.1)	IC50 [1] [nM]	Rank, T-only chimera (Kv1.3) [1]	inhibition of Kv1.2, in words (human Kv1.2)	Rank, T+F chimera (Kv1.2) (KcsA-Kv1.2 T+F chimera [2])	IC50 (KcsA-Kv1.2 T+F chimera [3]; HgTx1-phage competition, KcsA-Kv1.2 T+F, value given in figure, sigmoidal fit to means of three replicates, read-out: IC50 (Fig. 7F)) [nM]	IC50 (human Kv1.1; human Kv1.1 channel blocking, patch-clamp, read-out: IC50, Kv1.x blocking (Kv1.1)) [nM]	block of native Kv1.2, in words (human Kv1.2)	IC50 (human Kv1.2) [nM]	IC50 (KcsA-Kv1.2 T+F chimera [3]; displacement of HgTx1-phage, KcsA-Kv1.2 T+F 0.0125 μg/well on nickel-coated plate, mean ± SD (n = 3), read-out: IC50, T+F chimera (Kv1.2)) [nM]
CC[C@H](C)[C@@H]1NC(=O)CNC(=O)[C@H](Cc2ccccc2)NC(=O)[C@H](CCC(N)=O)NC(=O)[C@H](C)NC(=O)[C@H](CCCCN)NC(=O)[C@@H]2CSSC[C@@H](C(=O)N[C@@H](Cc3ccc(O)cc3)C(=O)N3CCC[C@H]3C(=O)N[C@@H](Cc3c[nH]cn3)C(=O)O)NC(=O)[C@H](CCCCN)NC(=O)[C@@H]3CSSC[C@H](NC(=O)[C@H](CCC(N)=O)NC(=O)[C@H](CCCCN)NC(=O)[C@@H]4CCCN4C(=O)[C@H](CO)NC(=O)[C@H]([C@@H](C)O)NC(=O)[C@@H](NC(=O)[C@H](CCCCN)NC(=O)[C@@H](NC(=O)[C@H](CC(=O)O)NC(=O)[C@@H](NC(=O)[C@@H](NC(=O)[C@@H](N)[C@@H](C)O)C(C)C)[C@@H](C)CC)C(C)C)CSSC[C@H](NC(=O)[C@H](CCCCN)NC(=O)[C@H](C)NC(=O)CNC(=O)[C@H](C)NC(=O)[C@H](CCCNC(=N)N)NC1=O)C(=O)N[C@@H](CCSC)C(=O)N[C@@H](CC(N)=O)C(=O)NCC(=O)N[C@@H](CCCCN)C(=O)N3)C(=O)N[C@@H](CC(C)C)C(=O)N1CCC[C@H]1C(=O)N1CCC[C@H]1C(=O)N2 [HgTx1, Hongotoxin-1] (HELM PEPTIDE1{T.V.I.D.V.K.C.T.S.P.K.Q.C.L.P.P.C.K.A.Q.F.G.I.R.A.G.A.K.C.M.N.G.K.C.K.C.Y.P.H}$PEPTIDE1,PEPTIDE1,7:R3-29:R3|PEPTIDE1,PEPTIDE1,13:R3-34:R3|PEPTIDE1,PEPTIDE1,17:R3-36:R3$$$V2.0; N-terminus and C-terminus assumed)	equivalent high potency	0.671	3	equivalent high potency	–	–	–	–	–	–
CC[C@H](C)[C@@H]1NC(=O)[C@@H]2CSSC[C@H](NC(=O)[C@H](CO)NC(=O)[C@@H](N)C(C)C)C(=O)N[C@@H]([C@@H](C)O)C(=O)NCC(=O)N[C@@H](CO)C(=O)N[C@@H](CCCCN)C(=O)N[C@@H](CC(=O)O)C(=O)N[C@@H](CSSC[C@@H](C(=O)N[C@@H](CCCCN)C(=O)N[C@H]3CSSC[C@@H](C(N)=O)NC(=O)CNC(=O)[C@H](Cc4ccc(O)cc4)NC3=O)NC(=O)[C@H](CO)NC(=O)[C@H](CCCCN)NC(=O)[C@H](CC(N)=O)NC1=O)C(=O)N[C@@H](Cc1ccc(O)cc1)C(=O)N[C@@H](C)C(=O)N1CCC[C@H]1C(=O)N[C@H]1CSSC[C@H](NC(=O)CNC(=O)[C@H]([C@@H](C)O)NC(=O)[C@H](CCC(N)=O)NC(=O)[C@H](CCCCN)NC(=O)[C@H](CCCNC(=N)N)NC1=O)C(=O)N1CCC[C@H]1C(=O)N[C@@H](CC(N)=O)C(=O)N[C@@H](C)C(=O)N[C@@H](CCCCN)C(=O)N2 [MTX, Maurotoxin] (HELM PEPTIDE1{V.S.C.T.G.S.K.D.C.Y.A.P.C.R.K.Q.T.G.C.P.N.A.K.C.I.N.K.S.C.K.C.Y.G.C.[am]}$PEPTIDE1,PEPTIDE1,3:R3-24:R3|PEPTIDE1,PEPTIDE1,9:R3-29:R3|PEPTIDE1,PEPTIDE1,13:R3-19:R3|PEPTIDE1,PEPTIDE1,31:R3-34:R3$$$V2.0; N-terminus and C-terminus assumed)	–	–	–	–	1	0.129	> 100	potent blocker	0.8	–
CC[C@H](C)[C@@H]1NC(=O)[C@@H](NC(=O)[C@H](CO)NC(=O)[C@@H](N)CCCNC(=N)N)CSSC[C@@H](C(=O)O)NC(=O)[C@H]([C@@H](C)O)NC(=O)CNC(=O)[C@@H]2CSSC[C@@H]3NC(=O)[C@H](CCC(N)=O)NC(=O)[C@H](Cc4ccccc4)NC(=O)[C@H](C)NC(=O)[C@H]([C@@H](C)O)NC(=O)[C@H](CSSC[C@H](NC(=O)[C@H](Cc4ccccc4)NC(=O)[C@H](CO)NC(=O)[C@H](CC(C)C)NC(=O)[C@H](CCCNC(=N)N)NC(=O)[C@H](Cc4ccc(O)cc4)NC(=O)[C@H](CCCCN)NC(=O)[C@H](CCSC)NC(=O)[C@H](CO)NC(=O)[C@H](Cc4c[nH]cn4)NC(=O)[C@H](CCCCN)NC3=O)C(=O)N[C@@H](CCCNC(=N)N)C(=O)N[C@@H](CCCCN)C(=O)N[C@@H]([C@@H](C)O)C(=O)N2)NC(=O)[C@H](CCCNC(=N)N)NC(=O)[C@H](CO)NC(=O)[C@H](CCCCN)NC(=O)[C@@H]2CCCN2C(=O)[C@H]([C@@H](C)CC)NC(=O)[C@H]([C@@H](C)O)NC(=O)[C@H](CC(=O)O)NC1=O [ShK, Stichodactyla toxin]	–	–	–	–	2	–	–	–	9	15.9
CC[C@H](C)[C@H](NC(=O)[C@H](C)NC(=O)[C@H](C)NC(=O)[C@H](C)N)C(=O)N[C@@H](CO)C(=O)N[C@H]1CSSC[C@@H]2NC(=O)[C@H](CCCCN)NC(=O)CNC(=O)[C@H](CC(N)=O)NC(=O)[C@H](CCCCN)NC(=O)[C@@H]3CSSC[C@@H](C(N)=O)NC(=O)[C@H](Cc4ccc(O)cc4)NC(=O)[C@H](Cc4ccc(O)cc4)NC(=O)[C@@H]4CSSC[C@H](NC(=O)[C@H](CCCCN)NC(=O)[C@@H]5CCCN5C(=O)[C@@H]5CCCN5C(=O)[C@H](CSSC[C@H](NC(=O)[C@H](CCCCN)NC(=O)[C@H](CCCNC(=N)N)NC(=O)[C@H](CC(N)=O)NC(=O)[C@H](CCSC)NC2=O)C(=O)N[C@@H](CCCCN)C(=O)N4)NC(=O)[C@H](CCC(=O)O)NC(=O)[C@@H]2CCCN2C(=O)[C@H](CO)NC(=O)CNC(=O)[C@H](C(C)C)NC1=O)C(=O)N[C@@H](CCCNC(=N)N)C(=O)N[C@@H](C)C(=O)N[C@@H](CCC(N)=O)C(=O)NCC(=O)N3 [Vm24, Vm24 toxin]	–	0.603	2	–	–	–	–	–	–	–
